Data on six molecules can be found in patent EP3266784A1, “PROTEIN ARGININE N-METHYLTRANSFERASES INHIBITORS AND USES THEREOF” (PIERRE FABRE MEDICAMENT, priority 2016, dated 2018).

What all share (format): biochemical
One experiment addresses T1, human PRMT7 enzyme (Homo sapiens, UniProt Q9NVM4).
T1 sequence (Q9NVM4 1-692): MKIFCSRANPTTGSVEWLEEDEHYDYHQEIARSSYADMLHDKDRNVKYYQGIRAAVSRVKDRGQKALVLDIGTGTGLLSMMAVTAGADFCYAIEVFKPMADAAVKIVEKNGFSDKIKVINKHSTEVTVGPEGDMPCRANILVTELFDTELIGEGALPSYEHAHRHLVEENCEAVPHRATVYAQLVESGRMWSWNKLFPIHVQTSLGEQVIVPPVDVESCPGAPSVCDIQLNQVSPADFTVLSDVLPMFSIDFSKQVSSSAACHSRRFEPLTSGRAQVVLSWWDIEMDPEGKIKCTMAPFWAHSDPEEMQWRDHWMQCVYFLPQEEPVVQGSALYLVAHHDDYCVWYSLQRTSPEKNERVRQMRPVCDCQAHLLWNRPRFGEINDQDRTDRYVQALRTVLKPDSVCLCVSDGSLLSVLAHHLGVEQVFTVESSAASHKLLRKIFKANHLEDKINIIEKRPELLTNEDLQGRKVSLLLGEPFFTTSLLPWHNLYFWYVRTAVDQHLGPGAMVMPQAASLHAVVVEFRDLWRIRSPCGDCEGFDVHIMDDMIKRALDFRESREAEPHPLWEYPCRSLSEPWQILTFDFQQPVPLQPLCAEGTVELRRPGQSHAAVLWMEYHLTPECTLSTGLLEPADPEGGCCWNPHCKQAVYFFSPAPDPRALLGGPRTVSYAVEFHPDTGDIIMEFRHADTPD
The experiment can be described thus: PRMT7 inhibition assay (radioactive [3H]SAM methyl transfer, filter binding). As to conditions: 250 nM [3H]SAM, 4 nM Histone H2B (21-41) biotin labelled, 90 min at 22°C; for inhibition at 100 µM: read-out: PRMT7 100µM, percent inhibition of the control enzyme activity; for inhibition at 10 µM: read-out: PRMT7 10µM, percent inhibition of the control enzyme activity. Here is the method: (§1) The inhibitory effect of compounds on the methyltransferase activity of human PRMT was evaluated via the measurement of its capacity to transfer methyl groups in a radioactivity assay.
The test compound, reference compound, or water (control) were incubated for 90 min at 22°C with 12.5 ng human PRMT7 enzyme, 250 nM [^3H]SAM and 4 nM Histone H2B (21-41) biotin labelled in a buffer containing 45 mM Tris-HCl (pH 8.7), 0.0045% Tween20, 0.009% HSA and 0.9 mM DTT.
(§2) For control basal measurements, the enzyme is omitted from the reaction mixture. Following incubation, the reaction is stopped by adding 33 mM citric acid and the samples are filtered rapidly under vacuum through glass fiber filters (GF/B, Packard) presoaked with 33 mM citric acid and rinsed several times with ice-cold 33 mM citric acid using a 96-sample cell harvester (Unifilter, Packard). The filters are dried then counted for radioactivity in a scintillation counter (Topcount, Packard) using a scintillation cocktail (Microscint 0, Packard).
The results are expressed as a percent inhibition of the control enzyme activity. The standard reference compound is SAH, which is tested in each experiment at several concentrations to obtain a competition curve from which its IC50 is calculated (Zurita-Lopez et al., 2012, J. Biol. Chem., 287(11):7859).

For the next experiment, the target named is T2, human PRMT4 enzyme (Homo sapiens, UniProt Q86X55).
T2 sequence (Q86X55 1-608): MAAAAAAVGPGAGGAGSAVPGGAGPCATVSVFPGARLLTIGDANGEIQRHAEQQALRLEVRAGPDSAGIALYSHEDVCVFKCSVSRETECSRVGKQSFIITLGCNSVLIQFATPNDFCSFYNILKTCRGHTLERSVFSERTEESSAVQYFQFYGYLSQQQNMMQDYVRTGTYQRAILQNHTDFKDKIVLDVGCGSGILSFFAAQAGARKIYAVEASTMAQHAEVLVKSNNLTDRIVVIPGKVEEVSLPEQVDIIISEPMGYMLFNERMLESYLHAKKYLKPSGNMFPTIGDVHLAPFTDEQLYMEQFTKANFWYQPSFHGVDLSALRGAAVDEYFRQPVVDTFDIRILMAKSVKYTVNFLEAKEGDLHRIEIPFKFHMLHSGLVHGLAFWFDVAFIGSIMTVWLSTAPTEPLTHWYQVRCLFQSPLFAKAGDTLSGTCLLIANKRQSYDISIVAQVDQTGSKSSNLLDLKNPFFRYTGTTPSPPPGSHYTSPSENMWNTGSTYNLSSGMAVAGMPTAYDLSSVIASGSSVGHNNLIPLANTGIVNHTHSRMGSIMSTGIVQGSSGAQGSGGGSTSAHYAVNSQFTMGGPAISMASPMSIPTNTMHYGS
Briefly: PRMT4 inhibition assay (radioactive [3H]SAM methyl transfer, filter binding). The settings on record: 60 nM [3H]SAM, 25 nM Histone H3 full length, 1 h at 22°C; for IC50: read-out: PRMT4/CARM1 IC50; for inhibition at 100 µM: read-out: PRMT4/CARM1 100µM, percent inhibition of the control enzyme activity; for inhibition at 10 µM: read-out: PRMT4/CARM1 10µM, percent inhibition of the control enzyme activity. Here is the method: as §1
The test compound, reference compound, or water (control) were incubated for 1 h at 22°C with 2.5 ng human PRMT4 enzyme, 60 nM [^3H]SAM and 25 nM Histone H3 full length in a buffer containing 45 mM Tris-HCl (pH 8), 45 mM NaCl, 4.5 mM MgCl2 and 3.6 mM DTT.
as §2
The results are expressed as a percent inhibition of the control enzyme activity. The standard reference compound is SAH, which is tested in each experiment at several concentrations to obtain a competition curve from which its IC50 is calculated (Selvi et al., 2010, J. Biol. Chem., 285: 7143).

The target of another experiment is human PRMT1 enzyme (Homo sapiens, UniProt Q99873). Briefly: PRMT1 inhibition assay (radioactive [3H]SAM methyl transfer, filter binding). The settings on record: compound at 100µM, 700 nM [3H]SAM, 50 nM Histone H4 full length, 20 min at 22°C; for inhibition at 100 µM: read-out: PRMT1 100µM, percent inhibition of the control enzyme activity. Here is the method: as §1
Chain of human PRMT1 enzyme (Q99873 whole entry): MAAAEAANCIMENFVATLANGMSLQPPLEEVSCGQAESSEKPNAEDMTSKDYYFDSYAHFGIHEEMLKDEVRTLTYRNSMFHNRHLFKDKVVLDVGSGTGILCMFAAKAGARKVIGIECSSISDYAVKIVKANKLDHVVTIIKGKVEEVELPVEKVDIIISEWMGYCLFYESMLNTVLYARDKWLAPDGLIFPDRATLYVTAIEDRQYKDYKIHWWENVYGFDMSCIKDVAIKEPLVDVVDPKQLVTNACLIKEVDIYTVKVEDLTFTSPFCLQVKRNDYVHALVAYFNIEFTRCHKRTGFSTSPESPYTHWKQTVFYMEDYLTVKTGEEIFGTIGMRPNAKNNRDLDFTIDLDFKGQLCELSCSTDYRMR
The test compound, reference compound, or water (control) were incubated for 20 min at 22°C with 20 ng human PRMT1 enzyme, 700 nM [^3H]SAM and 50 nM Histone H4 full length in a buffer containing 45 mM Tris-HCl (pH 8), 4.5 mM MgCl2, 45 mM NaCl and 3.6 mM DTT.
as §2
The results are expressed as a percent inhibition of the control enzyme activity. The standard reference compound is SAH, which is tested in each experiment at several concentrations to obtain a competition curve from which its IC50 is calculated (Cheng et al., 2004, J. Biol. Chem. 279:23892).

A further experiment concerns the target human PRMT6 enzyme (Homo sapiens, UniProt Q96LA8). Briefly: PRMT6 inhibition assay (radioactive [3H]SAM methyl transfer, filter binding). As to conditions: 120 nM [3H]SAM, 25 nM Histone H3 full length, 120 min at 22°C; for inhibition at 10 µM: compound at 10µM, read-out: PRMT6 10µM, percent inhibition of the control enzyme activity; for inhibition at 100 µM: read-out: PRMT6 100µM, percent inhibition of the control enzyme activity. Here is the method: as §1
The test compound, reference compound, or water (control) were incubated for 120 min at 22°C with 10 ng human PRMT6 enzyme, 120 nM [^3H]SAM and 25 nM Histone H3 full length in a buffer containing 45 mM Tris-HCl (pH 8), 45 mM NaCl, 4.5 mM MgCl2 and 3.6 mM DTT.
as §2
The results are expressed as a percent inhibition of the control enzyme activity. The standard reference compound is SAH, which is tested in each experiment at several concentrations to obtain a competition curve from which its IC50 is calculated. (lberg et al., 2007, J. Biol. Chem., 283: 3006).

Chain of human PRMT6 enzyme (Q96LA8 whole entry): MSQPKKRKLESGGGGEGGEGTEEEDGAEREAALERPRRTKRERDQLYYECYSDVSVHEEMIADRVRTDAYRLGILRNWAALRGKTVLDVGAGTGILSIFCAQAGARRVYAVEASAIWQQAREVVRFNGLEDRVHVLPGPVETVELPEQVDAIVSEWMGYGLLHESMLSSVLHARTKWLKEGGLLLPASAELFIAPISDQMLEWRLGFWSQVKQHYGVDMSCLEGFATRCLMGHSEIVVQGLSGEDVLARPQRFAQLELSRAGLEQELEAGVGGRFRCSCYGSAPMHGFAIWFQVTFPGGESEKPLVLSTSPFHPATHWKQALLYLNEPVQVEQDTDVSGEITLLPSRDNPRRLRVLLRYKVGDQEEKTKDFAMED

On to “1-(methoxymethyl)-5-(N-(5'-deoxyadenosin-5'-yl)aminomethyl)cytosine”, for which the “PRMT7 10µM, percent inhibition of the control enzyme activity” value on human PRMT7 enzyme (compound at 10µM) was determined as 33%. Besides, the “PRMT7 100µM, percent inhibition of the control enzyme activity” value on human PRMT7 enzyme (compound at 100µM) is recorded as 89%. Also, the IC50 on human PRMT4 enzyme turned out to be 1.9 µM. Besides, the “PRMT4/CARM1 10µM, percent inhibition of the control enzyme activity” value at human PRMT4 enzyme (compound at 10µM) was determined as 81%. Also, the “PRMT4/CARM1 100µM, percent inhibition of the control enzyme activity” value at human PRMT4 enzyme (compound at 100µM) was 99%. Besides, the “PRMT1 100µM, percent inhibition of the control enzyme activity” value at human PRMT1 enzyme was 13%. Moreover, the “PRMT6 100µM, percent inhibition of the control enzyme activity” value at human PRMT6 enzyme (compound at 100µM) amounted to 20%.

As for `COCn1cc(CNC[C@H]2O[C@@H](n3cnc4c(N)ncnc43)[C@H](O)[C@@H]2O)c(N)nc1=O` [Compound A, 1-(methoxymethyl)-5-(N-(5'-deoxyadenosin-5'-yl)aminomethyl)cytosine 5'-deoxy-5'-((1-(methoxymethyl)cytosin-5-yl)methylamino)adenosine], the inhibition at 100 µM on human PRMT7 enzyme (compound at 100µM) came out at 12%; at human PRMT4 enzyme (compound at 100µM), 21%.

In the case of `COCn1cc(CN(CCC(N)C(=O)O)CC2OC(n3cnc4c(N)ncnc43)C(O)C2O)c(N)nc1=O` (centres unmarked) [Compound B], the inhibition at 10 µM on human PRMT7 enzyme (compound at 10µM) is 30%; at human PRMT4 enzyme (compound at 10µM), 21%; at human PRMT6 enzyme, 3%. In addition, the inhibition at 100 µM was found to be 81% on human PRMT7 enzyme (compound at 100µM), 59% on human PRMT4 enzyme (compound at 100µM), 24% on human PRMT1 enzyme and 61% on human PRMT6 enzyme (compound at 100µM).

Consider `COCn1cc(CN(CCC(N)C(=O)O)CCC2OC(n3cnc4c(N)ncnc43)C(O)C2O)c(N)nc1=O` (centres unmarked) [D], for which the values for the inhibition at 10 µM at human PRMT7 enzyme (compound at 10µM), on human PRMT4 enzyme (compound at 10µM) and on human PRMT6 enzyme were 46%, 54% and 8%, respectively. Further, the inhibition at 100 µM at human PRMT7 enzyme (compound at 100µM) worked out at 83%; on human PRMT4 enzyme (compound at 100µM) it was 88%; at human PRMT1 enzyme, 42%; at human PRMT6 enzyme (compound at 100µM), 47%. In addition, on human PRMT4 enzyme, the IC50 turned out to be 14 µM.

As for `Nc1nc(=O)n(CCOc2ccccc2)cc1CNCCC1OC(n2cnc3c(N)ncnc32)C(O)C1O` (centres unmarked) [E, 5'-deoxy-5'-(N-((1-(2-(4-phenoxy)ethyl)-cytosin-5-yl)methyl)-aminomethyl) adenosine], the inhibition at 10 µM on human PRMT4 enzyme (compound at 10µM) is 35%.

Take `Nc1nc(=O)n(CCOc2ccc(Br)cc2)cc1CNCC[C@H]1O[C@@H](n2cnc3c(N)ncnc32)[C@H](O)[C@@H]1O` [F, 5'-deoxy-5'-(N-((1-(2-(4-bromophenoxy)ethyl)-cytosin-5-yl)methyl)-aminomethyl) adenosine]: the inhibition at 10 µM at human PRMT4 enzyme (compound at 10µM) is 43%.
